These results are taken from patent publication US12337042B2, “Structural optimization method to improve the theranostic performance of peptide receptor-targeted radionuclide therapy for cancers” (University of Iowa Research Foundation, priority 2020, dated 2025).

Where two headings read alike, the source gives them in different places.

Series [1] has as its target T1, SSTR2-positive AR42J cells (Rattus norvegicus, UniProt P30680).
T1 construct: endogenous in cells; host or cells: AR42J rat pancreatic acinar cells
The series is described as follows: ^125I-TOC competitive binding assay in AR42J cells. As to the method: ^125I-TOC Competitive Binding Assay
TOC was labeled with iodine-125 (^125I) by conventional chloramine T method as described elsewhere (23). 1.0×10^5 AR42J rat pancreatic acinar cells were plated into poly-D-lysine-coated 24-well plates. […] The cells were then washed twice with ice-cold PBS and lysed with 0.5 N NaOH, and the radioactivity was measured via a gamma counter. The half maximal inhibitory concentration (IC50) was determined using GraphPad Prism V8.0.

Series [2] in a line: ^212Pb-PSC-PEG2-TOC toxicity studies with escalating doses. The class given is in vivo, CD-1 Elite (SOPF) male mice. An excerpt: FIG. 12A-12F. Dosimetry and toxicities of escalated doses (up to 150 μCi) of ^212Pb—PSC-PEG2-TOC in CD-1 Elite (SOPF) male mice. (A) Body weight change after the injection of ^212Pb-PSC-PEG2-TOC. […] (B) ^212Pb-PSC-PEG2-TOC biodistribution in CD-1 Elite (SOPF) male mice. ^212Pb is used for the study to include the impact of potential demetallation of ^212Pb and redistribution in bone marrow. (C) Estimated renal dose arising from the escalating doses of ^212Pb-PSC-PEG2-TOC based on the biodistribution in CD-1 Elite (SOPF) male mice. Organ level internal dose assessment (OLINDA) V2.1 was used for dose estimation in mice using 30 g mouse voxel phantom model. (D-E) The levels of renal toxicity markers arising from the escalating doses of ^212Pb-PSC-PEG2-TOC assessed by urine neutrophil gelatinase-associated lipocalin (uNGAL; D) at day 1 and day 3 post-administration and blood urea nitrogen (BUN; E) at 3 months post-administration.
^212Pb-PSC-PEG2-TOC Toxicity Studies
Escalating doses (0, 0.37, 1.85, 3.33, and 5.55 MBq or 0, 10, 50, 90, and 150 μCi) of ^212Pb-PSC-PEG2-TOC were administered to tumor-free CD-1 Elite (SOPF) male mice (n=4 for each group). Body weight was measured 2 times a week by 3 weeks post-injection and 1 time a week afterwards. Urine samples were collected (via metabolic case) at day 1 and day 3 post-administration to evaluate acute tubular toxicities in kidneys. […]

Setting [3] is: AR42J cells, 2 hours at 37° C., mean ± spread, read-out: IC50, competitive inhibition of ^125I-tyr^3-octreotide (^125I-TOC) binding.

T1 sequence (P30680 whole entry): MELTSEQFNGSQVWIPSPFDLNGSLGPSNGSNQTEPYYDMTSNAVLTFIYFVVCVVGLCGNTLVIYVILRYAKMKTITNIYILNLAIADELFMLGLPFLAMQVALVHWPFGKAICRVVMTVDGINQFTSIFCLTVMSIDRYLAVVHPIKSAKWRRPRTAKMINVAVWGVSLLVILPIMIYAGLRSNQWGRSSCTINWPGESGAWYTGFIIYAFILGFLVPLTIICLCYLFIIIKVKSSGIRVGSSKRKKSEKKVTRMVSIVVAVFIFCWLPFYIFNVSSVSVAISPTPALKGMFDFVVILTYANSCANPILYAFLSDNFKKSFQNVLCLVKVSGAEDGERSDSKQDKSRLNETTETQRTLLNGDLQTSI

Consider `C[C@@H](O)[C@@H]1NC(=O)[C@H](CCCCN)NC(=O)[C@@H](Cc2c[nH]c3ccccc23)NC(=O)[C@H](Cc2ccc(O)cc2)NC(=O)[C@@H](NC(=O)[C@@H](Cc2ccccc2)NC(=O)CN2CCN(CC(=O)O)CCN(CC(N)=O)CCN(CC(=O)O)CC2)CSSC[C@@H](C(=O)N[C@H](CO)[C@@H](C)O)NC1=O` [PSC-TOC], for which, in series [1] (setting [3]), the IC50 (in general, the concentration that gives 50% inhibition) came out at 6.2 ± 1.1 nM.

As for `C[C@@H](O)[C@@H]1NC(=O)[C@H](CCCCN)NC(=O)[C@@H](Cc2c[nH]c3ccccc23)NC(=O)[C@H](Cc2ccc(O)cc2)NC(=O)[C@@H](NC(=O)[C@@H](Cc2ccccc2)NC(=O)CCOCCOCCOCCOCCNC(=O)CN2CCN(CC(=O)O)CCN(CC(N)=O)CCN(CC(=O)O)CC2)CSSC[C@@H](C(=O)N[C@H](CO)[C@@H](C)O)NC1=O` [PSC-PEG4-TOC], in series [1] (setting [3]), the 50% inhibitory concentration (IC50) was 9.4 ± 1.3 nM.

In the case of `C[C@@H](O)[C@@H]1NC(=O)[C@H](CCCCN)NC(=O)[C@@H](Cc2c[nH]c3ccccc23)NC(=O)[C@H](Cc2ccc(O)cc2)NC(=O)[C@@H](NC(=O)[C@@H](Cc2ccccc2)NC(=O)CCOCCOCCNC(=O)CN2CCN(CC(=O)O)CCN(CC(N)=O)CCN(CC(=O)O)CC2)CSSC[C@@H](C(=O)N[C@H](CO)[C@@H](C)O)NC1=O` [PSC-PEG2-TOC], the IC50 in series [1] (setting [3]) worked out at 5.3 ± 1.2 nM.

On to `C[C@@H](O)[C@@H]1NC(=O)[C@H](CCCCN)NC(=O)[C@@H](Cc2c[nH]c3ccccc23)NC(=O)[C@H](Cc2ccc(O)cc2)NC(=O)[C@@H](NC(=O)[C@H](N)Cc2ccccc2)CSSC[C@@H](C(=O)N[C@H](CO)[C@@H](C)O)NC1=O` [TOC, Tyr^3-octreotide, reference compound], for which, in series [1], the IC50 was 3.1 ± 1.1 nM.

In the case of `C[C@@H](O)[C@@H]1NC(=O)[C@H](CCCCN)NC(=O)[C@@H](Cc2c[nH]c3ccccc23)NC(=O)[C@H](Cc2ccc(O)cc2)NC(=O)[C@@H](NC(=O)[C@@H](Cc2ccccc2)NC(=O)CCOCCOCCNC(=O)CN2CCN(CC(=O)O)CCN(CC(N)=O)CCN(CC(=O)O)CC2)CSSC[C@@H](C(=O)N[C@H](CO)[C@@H](C)O)NC1=O` [^212Pb-PSC-PEG2-TOC, metal not drawn], the “hematologic toxicity by complete blood count (CBC)” value in series [2] (doses up to 150 μCi, week 1, 2, and 4 post-administration) is given as “reversible hematologic toxicity”. Also, the “body weight change after injection” value in series [2] (escalated doses up to 150 μCi, tumor-free mice) is listed as “After an initial decrease in body weight in first days, the body weight of the treated mice increased gradually”.
